Experimental data reported in patent US9827275B2, “Immunostimulatory compositions and methods of use thereof” (Comvita New Zealand Ltd., priority 2010, dated 2017).

Assays:
THP-1 cells = test: TNF-α release/production from THP-1 cell line; type: cell-based; conditions: FIG. 8, THP-1 cell line
Description: In this example the ability of three New Zealand honeys to elicit the release of TNF-α from the monocytic cell lines THP-1 and U937 were investigated and the bioactive component responsible identified.
In this example, the effect or otherwise of pure AGP was analysed to determine how AGP influences cytokine stimulation as exemplified by TNF-α production from THP-1 cell line.
Varying doses of LPS were tested against THP-1 cell line and the cytokine response measured. […] The results further reinforce the presence of type II AG compounds and their influence on inflammation.

primed macrophage cells = test: cytokine TNFα response of primed macrophage cells; type: cell-based; conditions: added alone to primed macrophage cells
Description: Macrophage cells were then matured to a point where they were primed and ready to respond to an input. Adding varying levels of LPS and measuring the cytokine TNFα response confirmed the maturity and readiness of the macrophage cells.
A variety of different honeys were then added to the primed macrophage cells and the cytokine response measured to determine if there were any trends. ethylglyoxal (MGO) was also added with or without honey to determine if this ingredient of manuka honey also influenced the immune stimulation effects. A sugar solution was also used to determine if this had any effect as well.
Honey samples (5% (w/v) and LPS (1000 ng/mL) were prepared in water and heated at 80° C. for 30 min in a shaking water bath. After heat processing, further dilutions were performed in RPMI medium and the resulting honey tested for cytokine response.

Which pro-inflammatory response (THP-1 cells) does the source give for `CC(=O)C=O` [MGO, methylglyoxal] here?
Its pro-inflammatory response is “no significant pro-inflammatory response”.

What about the “impact on immune stimulation (cytokine response)” value (primed macrophage cells) of the same compound?
The value was “no impact”.
